In brackets after ≈: the same amount, converted by molar mass. Structures can show the parent of a compound that is named as a salt. Where two headings read alike, the source gives them in different places.
Key:
Strep. Faecalis HH 34358 = assay: MIC in vitro; type: cell-based; conditions: Enterococcus faecalis, read-out: minimum inhibitory concentration (MIC)
Description: (§1) The compounds of Formula I have antibacterial activity against either Gram positive or Gram negative bacteria with minimum inhibitory concentrations (MIC's) in vitro from 0.4 to 200 μg/ml. Test results for 7-D-mandelamido-3-(5-sulfomethyl-1,3,4-thiadiazol-2-ylthiomethyl)-3-cephem-4-carboxylic acid, disodium salt, tetrahydrate (A) are: […]

E. coli HH 33779 = assay: MIC in vitro; type: cell-based; conditions: Escherichia coli
Description: as §1

S. aureus HH 127 = assay: MIC in vitro; type: cell-based; conditions: Staphylococcus aureus
Description: as §1

[1] = system: S. aureus villaluz SK 70390; assay: MIC in vitro; type: cell-based; conditions: Staphylococcus aureus, read-out: minimum inhibitory concentration (MIC)
Description: as §1

Salmonella ATCC 12176 = assay: MIC in vitro; type: cell-based; conditions: ATCC12176, read-out: minimum inhibitory concentration (MIC)
Description: as §1

Entero. cloacae HH 31254 = assay: MIC in vitro; type: cell-based; conditions: Enterobacter cloacae, HH31254, read-out: minimum inhibitory concentration (MIC)
Description: as §1

Proteus morgani 179 = assay: MIC in vitro; type: cell-based; conditions: read-out: minimum inhibitory concentration (MIC)
Description: as §1

Kleb. pneumo. SK 1200 = assay: MIC in vitro; type: cell-based; conditions: read-out: minimum inhibitory concentration (MIC)
Description: as §1

S. aureus SK 23390 = assay: MIC in vitro; type: cell-based; conditions: Staphylococcus aureus
Description: as §1

Kleb. pneumo. SK 4200 = assay: MIC in vitro; type: cell-based; conditions: read-out: minimum inhibitory concentration (MIC)
Description: as §1

Proteus mirabilis PN-444 = assay: MIC in vitro; type: cell-based
Description: as §1

E. coli SK 12140 = assay: MIC in vitro; type: cell-based; conditions: Escherichia coli
Description: as §1

[2] = system: Entero. aerog. ATCC 13048; assay: MIC in vitro; type: cell-based; conditions: read-out: minimum inhibitory concentration (MIC)
Description: as §1

Pseudo. aeru. HH 63 = assay: MIC in vitro; type: cell-based; conditions: read-out: minimum inhibitory concentration (MIC)
Description: as §1

[3] = system: Serratia marc. ATCC 13880; assay: MIC in vitro; type: cell-based; conditions: ATCC13880, read-out: minimum inhibitory concentration (MIC)
Description: as §1

E. coli = assay: ED50 in infected mice; type: in vivo; conditions: two determinations; for ED50: Escherichia coli, read-out: ED50 in mice against E. coli
Kleb. pneumo. = assay: ED50 in infected mice; type: in vivo; conditions: two determinations; for ED50: Mus musculus, read-out: ED50 in mice against Kleb. pneumo.
Description: (s.c.); 25 and 10 mg/kg against E. coli as well as 8.7 and 8.5 mg/kg against Kleb. pneumo. (p.o.).

[4] = HH33779, in vitro, E. coli HH 33779, read-out: minimum inhibitory concentration (MIC)
[5] = HH127, in vitro, S. aureus HH 127, read-out: minimum inhibitory concentration (MIC)
[6] = in vitro, S. aureus villaluz SK 70390
[7] = SK23390, in vitro, S. aureus SK 23390, read-out: minimum inhibitory concentration (MIC)
[8] = PN444, in vitro, Proteus mirabilis PN-444, read-out: minimum inhibitory concentration (MIC)
[9] = SK12140, in vitro, E. coli SK 12140, read-out: minimum inhibitory concentration (MIC)

Row | Compound | MIC (Strep. Faecalis HH 34358) | MIC (E. coli HH 33779; [4]) | MIC (S. aureus HH 127; [5]) | MIC [1, 6] | MIC (Salmonella ATCC 12176) | MIC (Entero. cloacae HH 31254) | MIC (Proteus morgani 179; in vitro, Proteus morgani 179) | MIC (Kleb. pneumo. SK 1200) | MIC (S. aureus SK 23390; [7]) | MIC (Kleb. pneumo. SK 4200) | MIC (Proteus mirabilis PN-444; [8]) | MIC (E. coli SK 12140; [9]) | MIC [2] | MIC (Pseudo. aeru. HH 63) | MIC [3] | ED50 (E. coli; sc) | ED50 (Kleb. pneumo.; po) | ED50 (Kleb. pneumo.; sc) | ED50 in mice against Kleb. pneumo. (Kleb. pneumo.; p.o.) | further results
1 | Cc1nnc(SCC2=C(C(=O)O)N3C(=O)[C@@H](NC(=O)Cn4cnnn4)[C@H]3SC2)s1 [Cefazolin] | 6.3 µg/mL (≈ 13.9 µM) | 1.6 µg/mL (≈ 3.52 µM) | 0.4 µg/mL (≈ 0.88 µM) | 100 µg/mL (≈ 220 µM) | 0.8 µg/mL (≈ 1.76 µM) | 0.8 µg/mL (≈ 1.76 µM) | > 200 µg/mL | 0.8 µg/mL (≈ 1.76 µM) | 0.2 µg/mL (≈ 0.44 µM) | 1.6 µg/mL (≈ 3.52 µM) | 3.1 µg/mL (≈ 6.82 µM) | 0.8 µg/mL (≈ 1.76 µM) | 1.6 µg/mL (≈ 3.52 µM) | > 200 µg/mL | > 200 µg/mL | – | – | – | – | –
2 | CC1=C(C(=O)O)N2C(=O)[C@@H](NC(=O)[C@H](N)c3ccccc3)[C@H]2SC1 [Cephalexin] | – | – | – | – | – | – | – | – | – | – | – | – | – | – | – | 12.5 mg/kg | 19 mg/kg | 16.5 mg/kg | 10 mg/kg | ED50 (E. coli; po): 21.5 mg/kg; ED50 in mice against E. coli (E. coli; p.o.): 18 mg/kg
3 | CC(=O)OCC1=C(C(=O)O)N2C(=O)[C@@H](NC(=O)Cc3cccs3)[C@H]2SC1 [Cephalothin] | 6.3 µg/mL (≈ 15.9 µM) | – | – | – | 1.6 µg/mL (≈ 4.04 µM) | 6.3 µg/mL (≈ 15.9 µM) | – | 1.6 µg/mL (≈ 4.04 µM) | – | 1.6 µg/mL (≈ 4.04 µM) | – | – | 12.5 µg/mL (≈ 31.5 µM) | > 200 µg/mL | > 200 µg/mL | – | – | – | – | MIC (E. coli HH 33779; HH33779, read-out: minimum inhibitory concentration (MIC)): 6.3 µg/mL (≈ 15.9 µM); MIC (S. aureus HH 127; HH127, read-out: minimum inhibitory concentration (MIC)): 0.4 µg/mL (≈ 1.01 µM); MIC [1]: 50 µg/mL (≈ 126 µM); MIC (Proteus morgani 179): > 200 µg/mL; MIC (S. aureus SK 23390; SK23390, read-out: minimum inhibitory concentration (MIC)): 0.1 µg/mL (≈ 0.252 µM); MIC (Proteus mirabilis PN-444; Proteus mirabilis, PN444, read-out: minimum inhibitory concentration (MIC)): 0.8 µg/mL (≈ 2.02 µM); MIC (E. coli SK 12140; SK12140, read-out: minimum inhibitory concentration (MIC)): 3.1 µg/mL (≈ 7.82 µM)
4 | O=C(O)C1=C(CSc2nnc(CS(=O)(=O)O)s2)CS[C@@H]2[C@H](NC(=O)[C@H](O)c3ccccc3)C(=O)N12 [Compound A, 7-D-mandelamido-3-(5-sulfomethyl-1,3,4-thiadiazol-2-ylthiomethyl)-3-cephem-4-carboxylic acid, disodium salt, tetrahydrate] | 25 µg/mL | 0.8 µg/mL | 1.6 µg/mL | 200 µg/mL | 0.4 µg/mL | 0.4 µg/mL | 1.6 µg/mL | 0.4 µg/mL | 0.4 µg/mL | 0.4 µg/mL | 0.4 µg/mL | 0.4 µg/mL | 1.6 µg/mL | > 200 µg/mL | 25 µg/mL | 0.3 mg/kg | 8.7 mg/kg | 0.78 mg/kg | 8.5 mg/kg | ED50 in mice against E. coli (E. coli; s.c.): 0.39 mg/kg; ED50 in mice against Kleb. pneumo. (Kleb. pneumo.; s.c.): 0.62 mg/kg
